Species: Rattus norvegicus
Test: Open TG-GATES - Regimen: Single
Assay type: toxicity, organism-based, Sprague-Dawley
Parameters: regimen Single, gender Male, age 6 weeks
Conditions: in vivo, po, route gavage; for gamma-GTP / ALP / ALT / AST / BUN / CRE / DBIL / GLC / K / LDH / Na / PL / RALB / TBIL / TC / TG / TP: tissue Plasma; for APTT / Bas / Eos / Fbg / Hb / Ht / Lym / MCHC / MCV / Mono / PT / Plat / RBC / Ret / WBC: tissue Blood; for KIDNEY_L / KIDNEY_R / KIDNEY_TOTAL: tissue Kidney; for LIVER: tissue Liver
[1] = 1200 mg/kg, 3 h, dose level Middle
[2] = 1200 mg/kg, 6 h, dose level Middle
[3] = 1200 mg/kg, 9 h, dose level Middle
[4] = 1200 mg/kg, 24 h, dose level Middle
[5] = 2000 mg/kg, 3 h, dose level High
[6] = 2000 mg/kg, 6 h, dose level High
[7] = 2000 mg/kg, 9 h, dose level High
[8] = 2000 mg/kg, 24 h, dose level High

## O=C1NC(=O)C(c2ccccc2)(c2ccccc2)N1 [PHENYTOIN]
600 mg/kg, 24 h, dose level Low
  gamma-GTP: 1 IU/L
[1]
  TERMINAL_BW: 211.8 g
  APTT: 16.7 s
  Bas: 0.2%
  Eos: 1%
  Fbg: 284.4 mg/dL
  Hb: 13 g/dL
  Ht: 38.7%
  Lym: 75.2%
  MCHC: 33.6%
  MCV: 62.4 fL
  Mono: 3.4%
  PT: 13.8 s
  Plat: 122.5 x10_4/uL
  RBC: 621.4 x10_4/ul
  Ret: 8.4%
  KIDNEY_L: 0.9 g
  KIDNEY_R: 0.9 g
  KIDNEY_TOTAL: 1.8 g
  LIVER: 9.3 g
  ALP: 1502.4 IU/L
  ALT: 35.2 IU/L
  AST: 70.6 IU/L
  BUN: 10.2 mg/dL
  CRE: 0.2 mg/dL
  DBIL: 0.016 mg/dL
  GLC: 191.4 mg/dL
  K: 4 meq/L
  LDH: 98.2 IU/L
  Na: 142.2 meq/L
  PL: 146.8 mg/dL
  RALB: 2.5 g/dL
  TBIL: 0.052 mg/dL
  TC: 75.6 mg/dL
  TG: 74 mg/dL
  TP: 5.4 g/dL
  gamma-GTP: 1.2 IU/L
[2]
  TERMINAL_BW: 207.5 g
  APTT: 18 s
  Bas: 0.4%
  Eos: 1%
  Fbg: 279.4 mg/dL
  Hb: 13 g/dL
  Ht: 38.7%
  Lym: 73.2%
  MCHC: 33.7%
  MCV: 61.9 fL
  Mono: 3%
  PT: 14.5 s
  RBC: 625.6 x10_4/ul
  Ret: 8.2%
  WBC: 94.4 x10_2/uL
  KIDNEY_L: 0.9 g
  KIDNEY_R: 0.9 g
  KIDNEY_TOTAL: 1.9 g
  LIVER: 8.7 g
  ALP: 1256.2 IU/L
  ALT: 35.8 IU/L
  AST: 74.8 IU/L
  BUN: 7.8 mg/dL
  CRE: 0.2 mg/dL
  DBIL: 0.016 mg/dL
  GLC: 187 mg/dL
  K: 3.7 meq/L
  LDH: 77 IU/L
  Na: 143.4 meq/L
  PL: 141.4 mg/dL
  RALB: 2.5 g/dL
  TBIL: 0.058 mg/dL
  TC: 76.8 mg/dL
  TG: 30.6 mg/dL
  TP: 5.4 g/dL
  gamma-GTP: 1.2 IU/L
[3]
  TERMINAL_BW: 206.4 g
  APTT: 15.4 s
  Bas: 0.4%
  Eos: 1%
  Fbg: 297 mg/dL
  Hb: 13.1 g/dL
  Ht: 38.9%
  Lym: 78.6%
  MCHC: 33.6%
  MCV: 62.8 fL
  Mono: 2%
  PT: 14.1 s
  Plat: 112.1 x10_4/uL
  RBC: 619.2 x10_4/ul
  Ret: 7.6%
  WBC: 69.7 x10_2/uL
  KIDNEY_L: 0.9 g
  KIDNEY_R: 0.9 g
  KIDNEY_TOTAL: 1.8 g
  LIVER: 8 g
  ALP: 1378 IU/L
  ALT: 27.2 IU/L
  AST: 71 IU/L
  BUN: 7.4 mg/dL
  CRE: 0.2 mg/dL
  DBIL: 0.016 mg/dL
  GLC: 194 mg/dL
  K: 4.1 meq/L
  LDH: 70.8 IU/L
  Na: 142.2 meq/L
  PL: 148.8 mg/dL
  RALB: 2.6 g/dL
  TBIL: 0.058 mg/dL
  TC: 80 mg/dL
  TG: 29.8 mg/dL
  TP: 5.6 g/dL
  gamma-GTP: 1 IU/L
[4]
  TERMINAL_BW: 211.5 g
  APTT: 16.7 s
  Bas: 0.2%
  Eos: 1.2%
  Fbg: 278.6 mg/dL
  Hb: 13.6 g/dL
  Ht: 40%
  Lym: 78.6%
  MCHC: 33.9%
  MCV: 61.9 fL
  Mono: 2.4%
  PT: 14.3 s
  Plat: 118.4 x10_4/uL
  RBC: 646.4 x10_4/ul
  Ret: 7.1%
  WBC: 94.4 x10_2/uL
  KIDNEY_L: 1 g
  KIDNEY_R: 1 g
  KIDNEY_TOTAL: 1.9 g
  LIVER: 8.6 g
  ALP: 1604.8 IU/L
  ALT: 29 IU/L
  AST: 66.2 IU/L
  BUN: 10 mg/dL
  CRE: 0.2 mg/dL
  DBIL: 0.02 mg/dL
  GLC: 175.4 mg/dL
  K: 4.2 meq/L
  LDH: 102.4 IU/L
  Na: 142.4 meq/L
  PL: 126.6 mg/dL
  RALB: 2.5 g/dL
  TBIL: 0.042 mg/dL
  TC: 66.8 mg/dL
  TG: 52.4 mg/dL
  TP: 5.4 g/dL
  gamma-GTP: 1 IU/L
[5]
  TERMINAL_BW: 211 g
  APTT: 19.4 s
  Bas: 0.2%
  Eos: 1%
  Fbg: 266.2 mg/dL
  Hb: 13.1 g/dL
  Ht: 38.8%
  Lym: 77.6%
  MCHC: 33.6%
  MCV: 61.9 fL
  Mono: 3.4%
  PT: 14.1 s
  Plat: 118.3 x10_4/uL
  RBC: 626.4 x10_4/ul
  Ret: 8.3%
  WBC: 94.8 x10_2/uL
  KIDNEY_L: 0.9 g
  KIDNEY_R: 0.9 g
  KIDNEY_TOTAL: 1.8 g
  LIVER: 8.7 g
  ALP: 1674 IU/L
  ALT: 37.8 IU/L
  AST: 76 IU/L
  BUN: 10.2 mg/dL
  CRE: 0.2 mg/dL
  DBIL: 0.012 mg/dL
  GLC: 185.6 mg/dL
  K: 3.9 meq/L
  LDH: 78.4 IU/L
  Na: 141.4 meq/L
  PL: 137.8 mg/dL
  RALB: 2.5 g/dL
  TBIL: 0.058 mg/dL
  TC: 72 mg/dL
  TG: 41.8 mg/dL
  TP: 5.4 g/dL
  gamma-GTP: 1.2 IU/L
[6]
  TERMINAL_BW: 208.6 g
  APTT: 16.1 s
  Bas: 0.2%
  Eos: 0.8%
  Fbg: 289 mg/dL
  Hb: 13.1 g/dL
  Ht: 39.2%
  Lym: 79.2%
  MCHC: 33.4%
  MCV: 61.4 fL
  Mono: 2.4%
  PT: 14.3 s
  RBC: 637.2 x10_4/ul
  Ret: 7.9%
  WBC: 80.1 x10_2/uL
  KIDNEY_L: 1 g
  KIDNEY_R: 0.9 g
  KIDNEY_TOTAL: 1.9 g
  LIVER: 8.5 g
  ALP: 1539.4 IU/L
  ALT: 32 IU/L
  AST: 71.8 IU/L
  BUN: 8.6 mg/dL
  CRE: 0.2 mg/dL
  DBIL: 0.016 mg/dL
  GLC: 186.4 mg/dL
  K: 3.8 meq/L
  LDH: 94.8 IU/L
  Na: 142.2 meq/L
  PL: 139.6 mg/dL
  RALB: 2.5 g/dL
  TBIL: 0.058 mg/dL
  TC: 74.2 mg/dL
  TG: 26 mg/dL
  TP: 5.4 g/dL
  gamma-GTP: 1.4 IU/L
[7]
  TERMINAL_BW: 209.1 g
  APTT: 15.5 s
  Bas: 0.4%
  Eos: 1%
  Fbg: 295.6 mg/dL
  Hb: 12.9 g/dL
  Ht: 38.7%
  Lym: 77.6%
  MCHC: 33.4%
  MCV: 61.4 fL
  Mono: 1.6%
  PT: 14 s
  Plat: 122 x10_4/uL
  RBC: 631.4 x10_4/ul
  Ret: 8%
  WBC: 93 x10_2/uL
  KIDNEY_L: 0.9 g
  KIDNEY_R: 0.9 g
  KIDNEY_TOTAL: 1.8 g
  LIVER: 7.6 g
  ALP: 1420.6 IU/L
  ALT: 31.6 IU/L
  AST: 74.6 IU/L
  BUN: 7.8 mg/dL
  CRE: 0.2 mg/dL
  DBIL: 0.016 mg/dL
  GLC: 182.2 mg/dL
  K: 3.9 meq/L
  LDH: 83.2 IU/L
  Na: 141.8 meq/L
  PL: 124 mg/dL
  RALB: 2.6 g/dL
  TBIL: 0.062 mg/dL
  TC: 66 mg/dL
  TG: 23.2 mg/dL
  TP: 5.5 g/dL
  gamma-GTP: 1.8 IU/L
[8]
  TERMINAL_BW: 203.9 g
  APTT: 17 s
  Bas: 0%
  Eos: 1%
  Fbg: 279.2 mg/dL
  Hb: 13.8 g/dL
  Ht: 40.9%
  Lym: 75.4%
  MCHC: 33.7%
  MCV: 62.5 fL
  Mono: 2.2%
  PT: 14.3 s
  Plat: 121.4 x10_4/uL
  RBC: 654.4 x10_4/ul
  Ret: 7.7%
  WBC: 89.2 x10_2/uL
  KIDNEY_L: 1 g
  KIDNEY_R: 1 g
  KIDNEY_TOTAL: 1.9 g
  LIVER: 8 g
  ALP: 1411 IU/L
  ALT: 25.2 IU/L
  AST: 66 IU/L
  BUN: 9.8 mg/dL
  CRE: 0.2 mg/dL
  DBIL: 0.014 mg/dL
  GLC: 174.8 mg/dL
  K: 4.3 meq/L
  LDH: 77 IU/L
  Na: 141.8 meq/L
  PL: 124.8 mg/dL
  RALB: 2.6 g/dL
  TBIL: 0.052 mg/dL
  TC: 67.6 mg/dL
  TG: 38 mg/dL
  TP: 5.7 g/dL
  gamma-GTP: 1.2 IU/L

Reference: ChEMBL document CHEMBL3885861, “Open TG-GATES”
